Measurements taken from paper PMC6783499, “Heteroglycoclusters With Dual Nanomolar Affinities for the Lectins LecA and LecB From Pseudomonas aeruginosa” (Frontiers in Chemistry, 2019).

Legend:
LecB = biological target: T1, LecB (Pseudomonas aeruginosa, UniProt Q9HYN5); assay: biochemical; assay type: binding; settings: for n (stoichiometry, glycocluster molecules per lectin monomer) / –ΔG / –ΔH / −TΔS / Kd: 25°C; for n (stoichiometry, glycocluster molecules per lectin monomer): pH 7.5; for –ΔG / –ΔH / −TΔS: per mole of glycocluster; for Kd: 20 mM Tris, 100 mM NaCl, 0.1 mM CaCl2, pH 7.5, ligand in syringe; for binding to LecB in words: abstract
T1 construct: made in house; host or cells: Escherichia coli BL21(DE3)
Procedure: (§1) The resulting hGCs were tested in solution with lectins by Isothermal Titration Calorimetry (Table 1) and their binding properties were compared with homoclusters 15–20 (Berthet et al., [2013]; Thomas et al., [2015b]) displaying either 4 and 16 βGal or αFuc units attached with an oxime or a triazole linker (Figure 3). […] Experiments were performed in direct injection mode (i.e., ligand in syringe and protein in cell) to minimize aggregation problems.
(§2) All chemical reagents were purchased from Aldrich (Saint Quentin Fallavier, France) or Acros (Noisy-Le-Grand, France). All protected amino acids and Fmoc-Gly-Sasrin® resin was obtained from Advanced ChemTech Europe (Brussels, Belgium). For peptides and glycopeptides, analytical RP-HPLC was performed on Waters system equipped with a Waters 2695 separations module and a Waters 2487 Dual Absorbance UV/Visible Detector. Analysis was carried out at 1.0 mL/min (EC 125/3 nucleosil 300-5 C18) with UV monitoring at 214 nm and 250 nm using a linear A–B gradient (buffer A: 0.09% CF3CO2H in water; buffer B: 0.09% CF3CO2H in 90% acetonitrile). Purifications were carried out at 22.0 mL/min (VP 250/21 nucleosil 100-7 C18) with UV monitoring at 214 nm and 250 nm using a linear A–B gradient. HRMS and ESI-MS and HRMS spectra of peptides and glycopeptides were measured on an Esquire 3000 spectrometer from Bruker. Lectins LecA and LecB were produced in recombinant form in Escherichia coli BL21(DE3) as described previously (Mitchell et al., [2005]; Blanchard et al., [2008]).
(§3) Other compounds were assayed with a VP-ITC isothermal titration calorimeter (Microcal). The experiments were carried out at 25°C. All glycocompounds and lectins LecB and LecA were dissolved in the same buffer composed of 20 mM Tris with 100 mM NaCl and 0.1 mM CaCl2 at pH 7.5. For PEAQ-ITC, the lectins were placed in the microcalorimeter cell (200 μL) at concentrations varying from 35 to 70 μM. […] For VP-ITC, the microcalorimeter cell (1.447 mL) contained the lectins with concentrations between 30 and 100 μM. A total of 30 injections of 10 μL were performed intervals of 5 min while stirring at 310 rpm with glycoclusters concentrations varying from 0.40 to 0.150 μM. The experimental data were fitted to a theoretical titration curve using the Microcal PEAQ-ITC analysis software, with ΔH (enthalpy change), Ka (association constant), and N (number of binding sites per monomer) as adjustable parameters. Dissociation constant (Kd), free energy change (ΔG), and entropy contributions (TΔS) were derived from the previous ones. Two or three independent titrations were performed for each ligand tested.

LecA = biological target: T2, LecA (Pseudomonas aeruginosa, UniProt Q05097); assay: biochemical; assay type: binding
T2 construct: made in house; host or cells: Escherichia coli BL21(DE3)
Procedure: as §1, §2
as §3, with “A total of 30 injections of 10 μL were performed intervals of 5 min while stirring at 310 rpm with glycoclusters concentrations varying from 0.40 to 0.150 μM.” left out

[1] = LecA, ITC, 25°C, per mole of glycocluster

T1 sequence (Q9HYN5 entry or part of it): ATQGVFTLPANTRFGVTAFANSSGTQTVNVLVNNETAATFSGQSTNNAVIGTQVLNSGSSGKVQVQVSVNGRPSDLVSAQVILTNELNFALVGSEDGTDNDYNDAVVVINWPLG
T2 sequence (Q05097 whole entry): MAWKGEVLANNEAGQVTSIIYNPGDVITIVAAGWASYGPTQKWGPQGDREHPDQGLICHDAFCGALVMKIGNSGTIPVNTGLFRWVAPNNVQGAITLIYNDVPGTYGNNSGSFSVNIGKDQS

| Compound | –ΔH (binding enthalpy) (LecB; ITC) | n (stoichiometry, glycocluster molecules per lectin monomer) (LecB; ITC) | –ΔG (LecB; ITC) | –ΔH (LecB; ITC) | −TΔS (LecB; ITC) | Kd (LecB; ITC) | binding to LecB in words (LecB) | α (relative potency compared to the monovalent compound) (LecB; relative to αFuc-OMe) | Kd (LecA) | –ΔH (binding enthalpy) (LecA; LecA, ITC) | n (stoichiometry, glycocluster molecules per lectin monomer) (LecA; LecA, ITC, 25°C, pH 7.5) | –ΔG (LecA; [1]) | –ΔH (LecA; [1]) | −TΔS (LecA; [1]) | binding to LecA in words (LecA; LecA, abstract) | α (relative potency compared to the monovalent compound) (LecA; LecA, relative to βGal-OMe) | β (relative potency per sugar unit) (LecA; LecA, relative to βGal-OMe) | binding improvement on multimerisation of tetravalent to hexadecavalent dendrimer (LecB; 19 versus tetravalent 15) | β (relative potency per sugar unit) (LecB; relative to αFuc-OMe) |
| --- | --- | --- | --- | --- | --- | --- | --- | --- | --- | --- | --- | --- | --- | --- | --- | --- | --- | --- | --- |
| C[C@@H]1NC(=O)[C@H](CCCCNC(=O)/C=N/O[C@@H]2O[C@@H](C)[C@@H](O)[C@@H](O)[C@@H]2O)NC(=O)CNC(=O)[C@@H]2CCCN2C(=O)[C@H](CCCCNC(=O)/C=N/O[C@@H]2O[C@@H](C)[C@@H](O)[C@@H](O)[C@@H]2O)NC(=O)[C@H](CCCCNC(=O)CO/N=C/C(=O)NCCCC[C@@H]2NC(=O)CNC(=O)[C@@H]3CCCN3C(=O)[C@H](CCCCNC(=O)/C=N/OCC(=O)NCCCC[C@@H]3NC(=O)[C@H](CCCCNC(=O)/C=N/O[C@@H]4O[C@@H](C)[C@@H](O)[C@@H](O)[C@@H]4O)NC(=O)CNC(=O)[C@@H]4CCCN4C(=O)[C@H](CCCCNC(=O)/C=N/O[C@@H]4O[C@@H](C)[C@@H](O)[C@@H](O)[C@@H]4O)NC(=O)[C@H](C)NC(=O)[C@H](CCCCNC(=O)/C=N/O[C@@H]4O[C@@H](C)[C@@H](O)[C@@H](O)[C@@H]4O)NC(=O)CNC(=O)[C@@H]4CCCN4C(=O)[C@H](CCCCNC(=O)/C=N/O[C@@H]4O[C@@H](C)[C@@H](O)[C@@H](O)[C@@H]4O)NC3=O)NC(=O)[C@H](CCCCN)NC(=O)[C@H](CCCCNC(=O)CO/N=C/C(=O)NCCCC[C@@H]3NC(=O)[C@H](CCCCn4cc(CO[C@@H]5O[C@H](CO)[C@H](O)[C@H](O)[C@H]5O)nn4)NC(=O)CNC(=O)[C@@H]4CCCN4C(=O)[C@H](CCCCn4cc(CO[C@@H]5O[C@H](CO)[C@H](O)[C@H](O)[C@H]5O)nn4)NC(=O)[C@H](C)NC(=O)[C@H](CCCCn4cc(CO[C@@H]5O[C@H](CO)[C@H](O)[C@H](O)[C@H]5O)nn4)NC(=O)CNC(=O)[C@@H]4CCCN4C(=O)[C@H](CCCCn4cc(CO[C@@H]5O[C@H](CO)[C@H](O)[C@H](O)[C@H]5O)nn4)NC3=O)NC(=O)CNC(=O)[C@@H]3CCCN3C(=O)[C@H](CCCCNC(=O)CO/N=C/C(=O)NCCCC[C@@H]3NC(=O)[C@H](CCCCn4cc(CO[C@@H]5O[C@H](CO)[C@H](O)[C@H](O)[C@H]5O)nn4)NC(=O)CNC(=O)[C@@H]4CCCN4C(=O)[C@H](CCCCn4cc(CO[C@@H]5O[C@H](CO)[C@H](O)[C@H](O)[C@H]5O)nn4)NC(=O)[C@H](C)NC(=O)[C@H](CCCCn4cc(CO[C@@H]5O[C@H](CO)[C@H](O)[C@H](O)[C@H]5O)nn4)NC(=O)CNC(=O)[C@@H]4CCCN4C(=O)[C@H](CCCCn4cc(CO[C@@H]5O[C@H](CO)[C@H](O)[C@H](O)[C@H]5O)nn4)NC3=O)NC(=O)[C@H](C)NC2=O)NC(=O)[C@H](CCCCNC(=O)/C=N/O[C@@H]2O[C@@H](C)[C@@H](O)[C@@H](O)[C@@H]2O)NC(=O)CNC(=O)[C@@H]2CCCN2C(=O)[C@H](CCCCNC(=O)/C=N/O[C@@H]2O[C@@H](C)[C@@H](O)[C@@H](O)[C@@H]2O)NC1=O [Compound 11] | 50.7 kcal/mol | 0.10 | 9.61 kcal/mol | 50.69 ± 1.4 kcal/mol | 41.09 kcal/mol | 92 ± 14 nM | maintain their binding potency | 4.7 | 34 ± 7 nM | 51.6 to 58.1 kcal/mol | 0.16 | 10.2 kcal/mol | 55.59 ± 0.48 kcal/mol | 45.39 kcal/mol | maintain their binding potency | 4,412 | 551 |  |  |
| C[C@@H]1NC(=O)[C@H](CCCCNC(=O)/C=N/OCC(=O)NCCCC[C@@H]2NC(=O)[C@H](CCCCNC(=O)/C=N/O[C@@H]3O[C@@H](C)[C@@H](O)[C@@H](O)[C@@H]3O)NC(=O)CNC(=O)[C@@H]3CCCN3C(=O)[C@H](CCCCNC(=O)/C=N/O[C@@H]3O[C@@H](C)[C@@H](O)[C@@H](O)[C@@H]3O)NC(=O)[C@H](C)NC(=O)[C@H](CCCCNC(=O)/C=N/O[C@@H]3O[C@@H](C)[C@@H](O)[C@@H](O)[C@@H]3O)NC(=O)CNC(=O)[C@@H]3CCCN3C(=O)[C@H](CCCCNC(=O)/C=N/O[C@@H]3O[C@@H](C)[C@@H](O)[C@@H](O)[C@@H]3O)NC2=O)NC(=O)CNC(=O)[C@@H]2CCCN2C(=O)[C@H](CCCCNC(=O)/C=N/OCC(=O)NCCCC[C@@H]2NC(=O)[C@H](CCCCNC(=O)/C=N/O[C@@H]3O[C@@H](C)[C@@H](O)[C@@H](O)[C@@H]3O)NC(=O)CNC(=O)[C@@H]3CCCN3C(=O)[C@H](CCCCNC(=O)/C=N/O[C@@H]3O[C@@H](C)[C@@H](O)[C@@H](O)[C@@H]3O)NC(=O)[C@H](C)NC(=O)[C@H](CCCCNC(=O)/C=N/O[C@@H]3O[C@@H](C)[C@@H](O)[C@@H](O)[C@@H]3O)NC(=O)CNC(=O)[C@@H]3CCCN3C(=O)[C@H](CCCCNC(=O)/C=N/O[C@@H]3O[C@@H](C)[C@@H](O)[C@@H](O)[C@@H]3O)NC2=O)NC(=O)[C@H](CCCCN)NC(=O)[C@H](CCCCNC(=O)/C=N/OCC(=O)NCCCC[C@@H]2NC(=O)[C@H](CCCCNC(=O)/C=N/O[C@@H]3O[C@@H](C)[C@@H](O)[C@@H](O)[C@@H]3O)NC(=O)CNC(=O)[C@@H]3CCCN3C(=O)[C@H](CCCCNC(=O)/C=N/O[C@@H]3O[C@@H](C)[C@@H](O)[C@@H](O)[C@@H]3O)NC(=O)[C@H](C)NC(=O)[C@H](CCCCNC(=O)/C=N/O[C@@H]3O[C@@H](C)[C@@H](O)[C@@H](O)[C@@H]3O)NC(=O)CNC(=O)[C@@H]3CCCN3C(=O)[C@H](CCCCNC(=O)/C=N/O[C@@H]3O[C@@H](C)[C@@H](O)[C@@H](O)[C@@H]3O)NC2=O)NC(=O)CNC(=O)[C@@H]2CCCN2C(=O)[C@H](CCCCNC(=O)/C=N/OCC(=O)NCCCC[C@@H]2NC(=O)[C@H](CCCCNC(=O)/C=N/O[C@@H]3O[C@@H](C)[C@@H](O)[C@@H](O)[C@@H]3O)NC(=O)CNC(=O)[C@@H]3CCCN3C(=O)[C@H](CCCCNC(=O)/C=N/O[C@@H]3O[C@@H](C)[C@@H](O)[C@@H](O)[C@@H]3O)NC(=O)[C@H](C)NC(=O)[C@H](CCCCNC(=O)/C=N/O[C@@H]3O[C@@H](C)[C@@H](O)[C@@H](O)[C@@H]3O)NC(=O)CNC(=O)[C@@H]3CCCN3C(=O)[C@H](CCCCNC(=O)/C=N/O[C@@H]3O[C@@H](C)[C@@H](O)[C@@H](O)[C@@H]3O)NC2=O)NC1=O [Compound 19] |  | 0.06 | 10 kcal/mol | 76.72 ± 3.35 kcal/mol | 66.68 kcal/mol | 44 ± 5 nM | nanomolar affinity | 9.8 |  |  |  |  |  |  |  |  |  | 10 fold | 0.6 |
